Assay results reported in patent publication US11780805B2, “Carbamoyl phenylalaninol compounds and uses thereof” (AXSOME MALTA LTD., priority 2016, dated 2023).

Key:
[1] = molecular target: T1, alpha2A adrenergic receptor (Alpha2A) (Homo sapiens, UniProt P08913); assay: Competitive radioligand binding assay, Alpha2A; conditions: compound at 10 μM; radioligand yohimbine; cell membrane fractions; read-out: % Inhibition of Binding at Each Transporter or Receptor Target, Alpha2A
T1 sequence (P08913 1-465): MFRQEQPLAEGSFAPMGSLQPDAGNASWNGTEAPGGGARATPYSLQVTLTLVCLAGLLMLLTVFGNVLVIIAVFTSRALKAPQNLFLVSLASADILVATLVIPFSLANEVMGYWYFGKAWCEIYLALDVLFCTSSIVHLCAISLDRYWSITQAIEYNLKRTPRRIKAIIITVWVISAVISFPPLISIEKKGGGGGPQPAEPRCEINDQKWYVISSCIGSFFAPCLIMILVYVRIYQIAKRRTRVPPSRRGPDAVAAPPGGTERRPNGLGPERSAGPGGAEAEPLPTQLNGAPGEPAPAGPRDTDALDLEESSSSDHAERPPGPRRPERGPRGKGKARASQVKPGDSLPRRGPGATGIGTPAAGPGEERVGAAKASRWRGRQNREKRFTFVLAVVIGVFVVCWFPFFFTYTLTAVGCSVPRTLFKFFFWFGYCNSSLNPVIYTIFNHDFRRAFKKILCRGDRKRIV
Procedure: (§1) Compound 2 was tested for pharmacological activity in comparison to APC. Eight binding assays were carried out to provide a binding profile for each compound, including binding to dopamine transporter (DAT), norepinephrine transporter (NET), serotonin (5-HT) transporter (SERT), alpha2A adrenergic receptor (Alpha2A), alpha2C adrenergic receptor (Alpha2C), D2S dopamine receptor (D2S), D2L, dopamine receptor (D2L), and vesicular monoamine transporter (VMAT2). Competitive binding assays using a radiolabeled ligand were carried out with each compound at 10 μM. The radioligand for each target was as follows: DAT—BTCP, NET—protriptyline, SERT—imipramine Alpha2A—yohimbine, Alpha2C—yohimbine, D2S—7-OH-DPAT, D2L—butaclamol, VMAT2—tetrabenazine. The source of the receptors and transporters were prepared cell membrane fractions.

[2] = molecular target: T2, alpha2C adrenergic receptor (Alpha2C) (Homo sapiens, UniProt P18825); assay: Competitive radioligand binding assay, Alpha2C; conditions: compound at 10 μM; radioligand yohimbine; cell membrane fractions; read-out: % Inhibition of Binding at Each Transporter or Receptor Target, Alpha2C
T2 sequence (P18825 1-462): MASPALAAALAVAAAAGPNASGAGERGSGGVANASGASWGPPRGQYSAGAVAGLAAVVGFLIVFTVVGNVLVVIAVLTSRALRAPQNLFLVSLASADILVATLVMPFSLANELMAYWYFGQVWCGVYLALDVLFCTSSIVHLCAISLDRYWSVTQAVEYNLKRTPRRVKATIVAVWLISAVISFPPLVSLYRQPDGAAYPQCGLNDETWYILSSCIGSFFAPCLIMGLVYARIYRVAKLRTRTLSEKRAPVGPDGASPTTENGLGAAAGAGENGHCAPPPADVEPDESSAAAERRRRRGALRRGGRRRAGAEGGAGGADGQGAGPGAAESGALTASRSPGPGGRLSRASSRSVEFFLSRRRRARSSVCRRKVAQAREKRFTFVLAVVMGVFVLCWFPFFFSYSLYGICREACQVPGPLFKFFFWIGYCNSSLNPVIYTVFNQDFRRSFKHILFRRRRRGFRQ
Procedure: as §1

[3] = molecular target: D2S dopamine receptor (D2S) (Homo sapiens, UniProt P14416); assay: Competitive radioligand binding assay, D2S; conditions: compound at 10 μM; radioligand 7-OH-DPAT; cell membrane fractions; read-out: % Inhibition of Binding at Each Transporter or Receptor Target, D2S
Chain of D2S dopamine receptor (D2S) (P14416 1-414 isoform P14416-2): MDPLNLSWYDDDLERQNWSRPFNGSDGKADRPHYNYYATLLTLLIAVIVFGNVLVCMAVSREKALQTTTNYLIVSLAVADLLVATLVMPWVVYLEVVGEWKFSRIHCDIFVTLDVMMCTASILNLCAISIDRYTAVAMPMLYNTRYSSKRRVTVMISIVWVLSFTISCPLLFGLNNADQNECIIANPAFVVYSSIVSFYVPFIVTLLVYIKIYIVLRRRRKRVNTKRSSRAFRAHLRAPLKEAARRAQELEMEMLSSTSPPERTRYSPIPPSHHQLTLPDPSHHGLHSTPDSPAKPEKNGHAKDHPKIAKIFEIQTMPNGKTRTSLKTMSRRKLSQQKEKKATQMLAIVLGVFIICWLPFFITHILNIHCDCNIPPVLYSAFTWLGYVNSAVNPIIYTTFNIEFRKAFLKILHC
Procedure: as §1

[4] = molecular target: D2L, dopamine receptor (D2L) (Homo sapiens, UniProt P14416); assay: Competitive radioligand binding assay, D2L; conditions: compound at 10 μM; radioligand butaclamol; cell membrane fractions; read-out: % Inhibition of Binding at Each Transporter or Receptor Target, D2L
Chain of D2L, dopamine receptor (D2L) (P14416 whole entry): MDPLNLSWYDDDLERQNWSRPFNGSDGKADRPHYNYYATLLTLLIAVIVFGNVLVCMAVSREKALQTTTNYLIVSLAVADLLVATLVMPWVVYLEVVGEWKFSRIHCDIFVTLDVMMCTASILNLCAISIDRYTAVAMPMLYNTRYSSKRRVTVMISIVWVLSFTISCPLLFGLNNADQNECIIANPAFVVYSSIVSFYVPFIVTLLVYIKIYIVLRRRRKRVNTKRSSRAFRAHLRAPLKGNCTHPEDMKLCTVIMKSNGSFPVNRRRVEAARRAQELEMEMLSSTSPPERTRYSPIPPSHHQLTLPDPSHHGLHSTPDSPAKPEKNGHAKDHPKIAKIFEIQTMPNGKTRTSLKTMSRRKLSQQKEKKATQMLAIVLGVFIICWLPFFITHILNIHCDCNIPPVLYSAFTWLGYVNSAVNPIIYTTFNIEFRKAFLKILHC
Procedure: as §1

[5] = molecular target: norepinephrine transporter (NET) (Homo sapiens, UniProt P23975); assay: Competitive radioligand binding assay, NET; conditions: compound at 10 μM; radioligand protriptyline; cell membrane fractions; read-out: % Inhibition of Binding at Each Transporter or Receptor Target, NET
Chain of norepinephrine transporter (NET) (P23975 whole entry, species assumed): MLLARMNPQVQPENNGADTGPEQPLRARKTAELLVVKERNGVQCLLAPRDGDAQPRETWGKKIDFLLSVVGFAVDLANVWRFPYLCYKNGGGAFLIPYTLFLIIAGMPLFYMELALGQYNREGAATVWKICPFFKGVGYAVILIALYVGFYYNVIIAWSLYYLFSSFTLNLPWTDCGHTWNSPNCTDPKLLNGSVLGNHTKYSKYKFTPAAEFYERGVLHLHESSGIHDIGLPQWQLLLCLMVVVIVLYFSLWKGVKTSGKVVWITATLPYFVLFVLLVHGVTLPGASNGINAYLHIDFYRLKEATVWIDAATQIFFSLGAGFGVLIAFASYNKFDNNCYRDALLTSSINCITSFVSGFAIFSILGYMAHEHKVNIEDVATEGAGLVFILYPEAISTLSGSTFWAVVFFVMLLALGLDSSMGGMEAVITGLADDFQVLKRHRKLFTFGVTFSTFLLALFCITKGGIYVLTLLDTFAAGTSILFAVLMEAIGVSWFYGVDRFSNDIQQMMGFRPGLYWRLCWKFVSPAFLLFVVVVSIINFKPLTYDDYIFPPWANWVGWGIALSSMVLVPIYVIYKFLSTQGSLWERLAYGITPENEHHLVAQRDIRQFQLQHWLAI
Procedure: as §1

[6] = molecular target: dopamine transporter (DAT) (Homo sapiens, UniProt Q01959); assay: Competitive radioligand binding assay, DAT; conditions: compound at 10 μM; radioligand BTCP; cell membrane fractions; read-out: % Inhibition of Binding at Each Transporter or Receptor Target, DAT
Chain of dopamine transporter (DAT) (Q01959 whole entry, species assumed): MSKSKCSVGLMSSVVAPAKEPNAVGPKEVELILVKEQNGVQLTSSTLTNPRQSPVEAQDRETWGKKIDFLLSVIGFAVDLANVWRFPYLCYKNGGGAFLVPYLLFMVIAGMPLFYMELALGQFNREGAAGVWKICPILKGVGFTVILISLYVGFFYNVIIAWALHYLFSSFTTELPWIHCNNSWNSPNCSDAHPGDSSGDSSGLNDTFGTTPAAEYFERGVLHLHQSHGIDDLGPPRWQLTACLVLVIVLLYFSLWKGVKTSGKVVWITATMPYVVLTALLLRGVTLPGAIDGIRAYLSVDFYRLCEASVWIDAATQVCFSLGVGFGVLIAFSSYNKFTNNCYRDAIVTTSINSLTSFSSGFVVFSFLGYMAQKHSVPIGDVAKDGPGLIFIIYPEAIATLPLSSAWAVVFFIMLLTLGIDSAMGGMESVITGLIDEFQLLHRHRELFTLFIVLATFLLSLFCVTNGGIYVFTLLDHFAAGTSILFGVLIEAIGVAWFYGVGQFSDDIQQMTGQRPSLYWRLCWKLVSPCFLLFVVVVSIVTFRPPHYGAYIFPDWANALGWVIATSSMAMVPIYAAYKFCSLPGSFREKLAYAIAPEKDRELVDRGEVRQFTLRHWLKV
Procedure: as §1

[7] = molecular target: serotonin (5-HT) transporter (SERT) (Homo sapiens, UniProt P31645); assay: Competitive radioligand binding assay, SERT; conditions: compound at 10 μM; radioligand imipramine; cell membrane fractions; read-out: % Inhibition of Binding at Each Transporter or Receptor Target, SERT
Chain of serotonin (5-HT) transporter (SERT) (P31645 whole entry, species assumed): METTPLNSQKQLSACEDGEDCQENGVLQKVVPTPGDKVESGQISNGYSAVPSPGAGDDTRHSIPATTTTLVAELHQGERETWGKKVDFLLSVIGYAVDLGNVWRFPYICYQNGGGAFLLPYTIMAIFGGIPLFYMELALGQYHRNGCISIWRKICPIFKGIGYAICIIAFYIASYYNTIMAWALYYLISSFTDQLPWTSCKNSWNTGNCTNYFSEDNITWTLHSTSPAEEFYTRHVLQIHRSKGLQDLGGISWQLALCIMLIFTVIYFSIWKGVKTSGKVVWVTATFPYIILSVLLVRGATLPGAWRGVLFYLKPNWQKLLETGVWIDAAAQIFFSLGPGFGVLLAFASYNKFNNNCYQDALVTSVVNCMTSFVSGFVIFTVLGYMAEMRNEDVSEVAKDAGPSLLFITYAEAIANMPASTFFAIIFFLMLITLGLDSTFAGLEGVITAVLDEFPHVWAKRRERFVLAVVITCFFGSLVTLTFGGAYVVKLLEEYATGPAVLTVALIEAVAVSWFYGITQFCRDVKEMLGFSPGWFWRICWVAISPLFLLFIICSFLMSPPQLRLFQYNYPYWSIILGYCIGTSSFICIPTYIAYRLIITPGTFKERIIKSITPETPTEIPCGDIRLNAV
Procedure: as §1

[8] = molecular target: vesicular monoamine transporter (VMAT2) (Homo sapiens, UniProt Q05940); assay: Competitive radioligand binding assay, VMAT2; conditions: compound at 10 μM; radioligand tetrabenazine; cell membrane fractions; read-out: % Inhibition of Binding at Each Transporter or Receptor Target, VMAT2
Chain of vesicular monoamine transporter (VMAT2) (Q05940 whole entry, species assumed): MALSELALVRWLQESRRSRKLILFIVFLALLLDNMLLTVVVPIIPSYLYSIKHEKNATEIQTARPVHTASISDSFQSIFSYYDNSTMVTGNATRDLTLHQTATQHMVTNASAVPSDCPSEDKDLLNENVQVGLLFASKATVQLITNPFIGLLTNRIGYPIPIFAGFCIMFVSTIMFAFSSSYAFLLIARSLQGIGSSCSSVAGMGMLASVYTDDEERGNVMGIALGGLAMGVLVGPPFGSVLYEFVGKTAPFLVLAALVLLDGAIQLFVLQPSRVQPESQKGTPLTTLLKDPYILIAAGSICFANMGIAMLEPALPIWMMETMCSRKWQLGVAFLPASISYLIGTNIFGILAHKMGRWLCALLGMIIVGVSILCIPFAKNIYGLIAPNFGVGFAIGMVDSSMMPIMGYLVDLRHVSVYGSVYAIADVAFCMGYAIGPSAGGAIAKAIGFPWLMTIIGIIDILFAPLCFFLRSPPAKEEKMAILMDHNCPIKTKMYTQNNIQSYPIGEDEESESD
Procedure: as §1

Row | SMILES | inhibition at 10 µM [1] [%] | inhibition at 10 µM [2] [%] | inhibition at 10 µM [3] [%] | inhibition at 10 µM [4] [%] | inhibition at 10 µM [5] [%] | inhibition at 10 µM [6] [%] | inhibition at 10 µM [7] [%] | inhibition at 10 µM [8] [%]
1 | NC(=O)OC[C@H](N)Cc1ccccc1 [APC, (R)-2-amino-3-phenylpropyl carbamate] | 16.5 | 7.4 | 18.7 | -3.4 | 6.2 | 81.4 | 4 | 12
2 | NC(=O)NC(=O)OC[C@H](N)Cc1ccccc1 [Compound 2, D-phenylalaninol allophanate] | 28 | 52.1 | 11.8 | -5.5 | 2.7 | 80.6 | 3.4 | -1
